The supplement of paper PMC13380429

Legend:
Settings in all cases: 72 h
[1] = system: Vero E6; assay: drug sensitivity score (DSS) for viability; higher = more toxic; extreme values may be limits of the assay
[2] = system: HepG2; assay: as above
[3] = system: Caco-2; assay: as above
[4] = system: U2OS; assay: as above
[5] = system: Calu-3; assay: as above
[6] = system: Vero E6; assay: relative viability EC50 (midpoint between 100% and the lowest measured viability); higher = less toxic
[7] = system: HepG2; assay: as above
[8] = system: Caco-2; assay: as above
[9] = system: U2OS; assay: as above
[10] = system: Calu-3; assay: as above
[11] = system: Vero E6; assay: cell viability relative to DMSO; higher = less toxic
[12] = system: HepG2; assay: as above
[13] = system: Caco-2; assay: as above
[14] = system: U2OS; assay: as above
[15] = system: Calu-3; assay: as above

| SMILES | drug sensitivity score [1] | drug sensitivity score [2] | drug sensitivity score [3] | drug sensitivity score [4] | drug sensitivity score [5] | relative viability EC50 [6] [µM] | relative viability EC50 [7] [µM] | relative viability EC50 [8] [µM] | relative viability EC50 [9] [µM] | relative viability EC50 [10] [µM] | cell viability ([11]; 1 nM) [%] | cell viability ([11]; 10 nM) [%] | cell viability ([11]; 100 nM) [%] | cell viability ([11]; 1000 nM) [%] | cell viability ([11]; 10000 nM) [%] | cell viability ([12]; 1 nM) [%] | cell viability ([12]; 10 nM) [%] | cell viability ([12]; 100 nM) [%] | cell viability ([12]; 1000 nM) [%] | cell viability ([12]; 10000 nM) [%] | cell viability ([13]; 1 nM) [%] | cell viability ([13]; 10 nM) [%] | cell viability ([13]; 100 nM) [%] | cell viability ([13]; 1000 nM) [%] | cell viability ([13]; 10000 nM) [%] | cell viability ([14]; 1 nM) [%] | cell viability ([14]; 10 nM) [%] | cell viability ([14]; 100 nM) [%] | cell viability ([14]; 1000 nM) [%] | cell viability ([14]; 10000 nM) [%] | cell viability ([15]; 1 nM) [%] | cell viability ([15]; 10 nM) [%] | cell viability ([15]; 100 nM) [%] | cell viability ([15]; 1000 nM) [%] | cell viability ([15]; 10000 nM) [%] |
| --- | --- | --- | --- | --- | --- | --- | --- | --- | --- | --- | --- | --- | --- | --- | --- | --- | --- | --- | --- | --- | --- | --- | --- | --- | --- | --- | --- | --- | --- | --- | --- | --- | --- | --- | --- |
| COC(=O)N[C@H](C(=O)N1CCC[C@H]1C(=O)Nc1ccc([C@@H]2CC[C@@H](c3ccc(NC(=O)[C@@H]4CCCN4C(=O)[C@@H](NC(=O)OC)C(C)C)cc3)N2c2ccc(C(C)(C)C)cc2)cc1)C(C)C [ombitasvir] | 0 | 0 | 0 | 0.3 | 0 | > 10 | > 10 | > 10 | > 10 | > 10 | 99.8 | 96.2 | 94.2 | 94.9 | 102 | 99.4 | 100 | 92.1 | 92.3 | 108 | 96 | 104 | 95.1 | 96.8 | 100 | 94.3 | 95.1 | 100 | 98 | 86.5 | 105 | 100 | 108 | 98.1 | 91.7 |
| COC(=O)[C@H](Cc1cccc(C(=N)N)c1)[C@@H](C)NC(=O)c1ccc(-c2cc[n+]([O-])cc2)cc1 [otamixaban] | 0 | 0 | 0 | 0 | 0 | > 10 | > 10 | > 10 | > 10 | > 10 | 103 | 101 | 94.1 | 97.9 | 96.3 | 89.3 | 103 | 98.6 | 102 | 96.7 | 104 | 104 | 101 | 99.2 | 104 | 99.1 | 95.3 | 98.3 | 97.8 | 104 | 88.9 | 92 | 90.5 | 94.4 | 105 |
| Clc1ccc(CO/N=C(\Cn2ccnc2)c2ccc(Cl)cc2Cl)c(Cl)c1 [oxiconazole] | 0 | 0 | 1.1 | 0 | 0 | > 10 | > 10 | > 10 | > 10 | > 10 | 99.9 | 105 | 95.4 | 102 | 95.5 | 97.4 | 103 | 105 | 98.5 | 89.7 | 106 | 94.8 | 99.8 | 90 | 83.5 | 100 | 97.3 | 97.6 | 91.1 | 92 | 97.5 | 87.3 | 83.4 | 94.8 | 103 |
| C=CCOc1ccccc1OCC(O)CNC(C)C (stereo not given) [oxprenolol] | 0 | 0 | 0 | 0 | 0 | > 10 | > 10 | > 10 | > 10 | > 10 | 98.6 | 104 | 102 | 106 | 98.6 | 97.4 | 97.8 | 93.3 | 113 | 107 | 102 | 91.5 | 98 | 91.2 | 97.9 | 106 | 97.7 | 99.8 | 101 | 102 | 111 | 90.8 | 108 | 93.2 | 103 |
| Cc1ccc(S(N)(=O)=O)cc1 [para-toluenesulfonamide] | 0 | 0 | 0 | 0 | 0 | > 10 | > 10 | > 10 | > 10 | > 10 | 102 | 94.6 | 98.4 | 99.2 | 103 | 105 | 107 | 110 | 94.4 | 120 | 103 | 99.2 | 98.1 | 98.9 | 100 | 100 | 96 | 97.7 | 102 | 104 | 102 | 94.8 | 91.1 | 91.8 | 95.9 |
| CC1(C)S[C@@H]2[C@H](NC(=O)COc3ccccc3)C(=O)N2[C@H]1C(=O)O [penicillin-v-potassium] | 0 | 0 | 0 | 0 | 0 | > 10 | > 10 | > 10 | > 10 | > 10 | 104 | 101 | 104 | 103 | 96.9 | 105 | 105 | 103 | 94.9 | 97.4 | 97.5 | 95.6 | 94.3 | 92.7 | 90 | 101 | 96.4 | 99.8 | 97 | 98.7 | 91.3 | 97.1 | 101 | 108 | 94.9 |
| CN1CCN(c2ccc3[nH]c(-c4ccc5[nH]c(-c6ccc(O)cc6)nc5c4)nc3c2)CC1 [pibenzimol] | 0 | 8.8 | 0 | 0 | 0 | > 10 | 0.35 | > 10 | > 10 | > 10 | 100 | 100 | 96 | 98.9 | 98.3 | 101 | 97.4 | 81.2 | 64.1 | 42.7 | 98.6 | 88.8 | 98 | 100 | 103 | 103 | 97.2 | 101 | 100 | 93.8 | 108 | 93.8 | 106 | 116 | 122 |
| CN1CCC(=C2c3ccccc3CCc3sccc32)CC1 [pizotifen] | 0 | 0 | 0 | 0 | 0 | > 10 | > 10 | > 10 | > 10 | > 10 | 98.3 | 98.6 | 97.9 | 100 | 103 | 96.2 | 101 | 99.1 | 109 | 101 | 97.6 | 104 | 101 | 107 | 99.2 | 94.6 | 95.6 | 101 | 94.4 | 94.6 | 96 | 88.7 | 102 | 91.3 | 98.2 |
| CCCN[C@H]1CCc2nc(N)sc2C1 [pramipexole] | 0 | 0 | 0 | 0 | 0 | > 10 | > 10 | > 10 | > 10 | > 10 | 104 | 104 | 105 | 99 | 101 | 88.2 | 90.8 | 109 | 99.3 | 108 | 97.3 | 103 | 99.7 | 96.8 | 107 | 96.2 | 98.2 | 95.5 | 98.6 | 103 | 91.7 | 111 | 107 | 102 | 110 |
| CC(=O)OCC(=O)[C@@]1(O)CC[C@H]2[C@@H]3CCC4=CC(=O)C=C[C@]4(C)[C@H]3[C@@H](O)C[C@@]21C [prednisolone-acetate] | 0 | 0 | 0.1 | 0 | 0 | > 10 | > 10 | > 10 | > 10 | > 10 | 99.5 | 106 | 104 | 102 | 94.4 | 107 | 106 | 93.1 | 90.9 | 114 | 110 | 108 | 93.3 | 106 | 85.8 | 110 | 106 | 100 | 101 | 97.8 | 99.5 | 92.3 | 82.6 | 87 | 98.1 |
| C[C@]12C=CC(=O)C=C1CC[C@@H]1[C@@H]2C(=O)C[C@@]2(C)[C@H]1CC[C@]2(O)C(=O)CO [prednisone] | 0 | 0 | 0.9 | 0 | 0 | > 10 | > 10 | > 10 | > 10 | > 10 | 100 | 99.3 | 104 | 97.4 | 94.6 | 100 | 105 | 98 | 101 | 90.6 | 95.8 | 99.6 | 100 | 89.7 | 85.3 | 98.9 | 99.2 | 95.7 | 99.6 | 95 | 97.8 | 98.1 | 98 | 106 | 103 |
| CCCOC(=O)c1ccc(O)cc1 [propyl 4-hydroxybenzoate] | 0 | 0 | 0 | 0 | 0 | > 10 | > 10 | > 10 | > 10 | > 10 | 108 | 95.9 | 102 | 95.3 | 100 | 108 | 102 | 107 | 89 | 102 | 92.2 | 100 | 102 | 90.2 | 109 | 102 | 97.1 | 100 | 98.9 | 102 | 92.1 | 95.4 | 88.7 | 92.1 | 102 |
| c1ccc2nc(N3CCNCC3)ccc2c1 [quipazine] | 0 | 0 | 0 | 0 | 0 | > 10 | > 10 | > 10 | > 10 | > 10 | 90.8 | 96.3 | 92.1 | 96.7 | 101 | 93.7 | 97.8 | 99.7 | 93.5 | 101 | 99 | 98.9 | 93.1 | 95.3 | 106 | 100 | 97.4 | 102 | 100 | 100 | 102 | 101 | 109 | 96.1 | 99.3 |
